In general, MIC refers to the lowest concentration that inhibits growth of the organism. A low value points to inhibition by little substance.

These results are taken from ChEMBL document CHEMBL1142078, “Detection of a new SHV-type extended-spectrum beta-lactamase, SHV-31, in a Klebsiella pneumoniae strain causing a large nosocomial outbreak in The Netherlands” (2007).

What all share (assay type): functional
Test [1] has as its system Escherichia coli. The test can be described thus: Antimicrobial activity against Escherichia coli XL10/vector.
The subject of test [2] is Klebsiella pneumoniae. The test can be described thus: Antimicrobial activity against Klebsiella pneumoniae KPN15-NL.
Test [3] has as its system Escherichia coli. Description: Antimicrobial activity against Escherichia coli XL10/pSHV-31.

Each structure is given as a SMILES string. ≈ marks a conversion by molar mass, not a printed value.

Regarding `CC1(C)S[C@@H]2[C@H](NC(=O)[C@H](N)c3ccc(O)cc3)C(=O)N2[C@H]1C(=O)O` [AMOXICILLIN], the results for the MIC in test [1], in test [2] and in test [3] were 16 µg/mL (≈ 43.8 µM), > 128 µg/mL and > 128 µg/mL, respectively.
Regarding `CC1(C)S[C@@H]2[C@H](NC(=O)[C@H](N)c3ccccc3)C(=O)N2[C@H]1C(=O)O` [AMPICILLIN], the MIC in test [2] and in test [3] was > 128 µg/mL throughout.
Turning to `C[C@H]1[C@H](NC(=O)/C(=N\OC(C)(C)C(=O)O)c2csc(N)n2)C(=O)N1S(=O)(=O)O` [AZTREONAM], the minimum inhibitory concentration (MIC) in test [1] was 0.12 µg/mL (≈ 0.276 µM); in test [2] it was > 128 µg/mL; in test [3], > 128 µg/mL.
Take `CO/N=C(\C(=O)N[C@@H]1C(=O)N2C(C(=O)[O-])=C(C[N+]3(C)CCCC3)CS[C@H]12)c1csc(N)n1` [CEFEPIME]: the MIC is ≤ 0.06 µg/mL in test [1], 1 µg/mL (≈ 2.08 µM) in test [2] and 0.5 µg/mL (≈ 1.04 µM) in test [3].
Taken in the same sequence, the figures for `CO/N=C(\C(=O)N[C@@H]1C(=O)N2C(C(=O)O)=C(COC(C)=O)CS[C@H]12)c1csc(N)n1` [CEFOTAXIME] were ≤ 0.06 µg/mL, 8 µg/mL (≈ 17.6 µM) and 4 µg/mL (≈ 8.78 µM).
The like results for `CO[C@@]1(NC(=O)Cc2cccs2)C(=O)N2C(C(=O)O)=C(COC(N)=O)CS[C@@H]21` [CEFOXITIN] were, in that order, 1 µg/mL (≈ 2.34 µM), 16 µg/mL (≈ 37.4 µM) and 1 µg/mL (≈ 2.34 µM).
On to `CC(C)(O/N=C(\C(=O)N[C@@H]1C(=O)N2C(C(=O)[O-])=C(C[n+]3ccccc3)CS[C@H]12)c1csc(N)n1)C(=O)O` [CEFTAZIDIME], for which the MIC was found to be 0.12 µg/mL (≈ 0.22 µM) in test [1], 128 µg/mL (≈ 234 µM) in test [2] and 32 µg/mL (≈ 58.5 µM) in test [3].
With `C[C@@H](O)[C@H]1C(=O)N2C(C(=O)O)=C(S[C@@H]3CN[C@H](C(=O)Nc4cccc(C(=O)O)c4)C3)[C@H](C)[C@H]12` [ERTAPENEM], the MIC in test [2] and in test [3] was ≤ 0.06 µg/mL each time.
On to `C[C@@H](O)[C@H]1C(=O)N2C(C(=O)O)=C(SCCNC=N)C[C@H]12` [IMIPENEM ANHYDROUS], for which the MIC in test [2] and in test [3] was ≤ 0.06 µg/mL in each case.
For `CCN1CCN(C(=O)N[C@@H](C(=O)N[C@@H]2C(=O)N3[C@@H]2SC(C)(C)[C@@H]3C(=O)O)c2ccccc2)C(=O)C1=O` [PIPERACILLIN], the minimum inhibitory concentration (MIC) in test [1] is 1 µg/mL (≈ 1.93 µM); in test [2] it was > 128 µg/mL; in test [3], 64 µg/mL (≈ 124 µM).
